# Data published in patent publication US6841533B1, “Conformationally constrained backbone cyclized interleukin-6 antagonists” (Peptor Limited, priority 1995, dated 2005).
# Numbered stars: 1 amine (or outer) side, 2 acyl side, 3 side chain; on linkers, the order of the positions; unused ones are H or OH. Bridge positions count the residues as written; N and C are the ends. Square brackets hold non-standard residues; d marks the D form. Ends that are not written are not given here. Peptide text beside a SMILES is read from it. TrpN2 = Trp building unit for backbone cyclization, bridging arm N2; Ala(Nα-(CH2)3CO) = C[C@@H](C(=O)[*:2])N(CCCC(=O)[*:3])[*:1]; Ala(Nα-(CH2)3NH) = C[C@@H](C(=O)[*:2])N(CCCN[*:3])[*:1]; Phe(4-NO2) = N[C@@H](Cc1ccc([N+](=O)[O-])cc1)C(=O)O; 4Pal = N[C@@H](Cc1ccncc1)C(=O)O; LysC3 = not defined here; Orn = NCCC[C@H](N)C(=O)O
# Tests used:
# [1] = test system: TF1 cells maintained with GM-CSF; assay: Selectivity bioassay using TF1 cells maintained with GM-CSF; format: cell-based, human; conditions: for Inhibition (%), Experiment 24, 3H-T, GM-CSF: Experiment 24, thymidine incorporation
# From the text: (§1) The problem associated with toxicity (false positive results), could be overcome in the TF1 based assay since these cells can be induced by additional cytokines which are unrelated to IL-6 (not using the gp130 signal transducer). It, is possible to induce the cells to grow with IL-6 and with additional cytokine e.g. GM-CSF. Specific inhibition of IL-6 bioactivity is therefore expected to register only in cells induced by IL-6 and not with GM-CSF. […] Assay procedure is based on the procedure described in Fourcin et al. (ibid). The amount of viable cells at the end of the assay is determined by staining the cells with WST reagent as well as by measuring thymidine corporation (^3H-T).
# (§2) Since the endpoint of the bioassay used is cell death, there is a need to check the specificity of the killing action, and to examine whether the cell death is due to inhibition of the IL-6 signaling pathway. The peptide analogs were therefore analyzed for their ability to induce non-specific cell death when the same cells were maintained with GM-CSF (instead of IL-6) as growth factor.
# [2] = test system: TF1 cells maintained with IL-6; assay: Bioassay using TF1 cells maintained with IL-6; format: cell-based, human; conditions: for Inhibition of IL-6 activity (%), Experiment 24, WST, IL-6 / Inhibition of IL-6 activity (%), Experiment 24, 3H-T, IL-6: cells with IL-6; for Inhibition of IL-6 activity (%), Experiment 24, 3H-T, IL-6: Experiment 24, thymidine incorporation; for specificity of inhibition, IL-6 versus GM-CSF maintained TF1 cells: in words, Table 7 and FIG. 4
# From the text: TF1 cells (human erythroleukemia) cells require IL-6 for growth and thus inhibition of IL-6 bioactivity results in cell death, similar to T1165 cells. The origin of all relevant molecules is human.
# as §1
# The libraries were screened for binding of soluble IL-6. The information obtained was used for synthesis of backbone cyclic peptides in MPS format. Analyses for biological activity were performed on the TF1 human cell line.
# as §2
# From the text for B16.F10.9 melanoma cells: The F10.9 sub-line of B16 (murine melanoma) expresses gp130 but not IL-6R. Addition of human IL-6 and human IL-6R, or a chimera of IL-6/IL-6R results in differentiation which is associated with growth arrest of the cells. Inhibition of IL-6 results in continued growth. Since the end point of this assay is cell growth rather than cell death, this assay system was used primarily in order to differentiate between suspected toxic effects observed on B9 or T1165 cells, and true inhibition of IL-6 activity.
# Evaluation of the results in this assay is possible using two methods. One method uses vital dyes for monitoring cell growth. The second method comprises visual observation of the cell morphology and establishing a cut off point based on the following observations:
# Cells which are not treated with IL-6 create a monolayer that covers almost all the surface area. Treatment with IL-6 causes growth arrest and a morphological change: the cells become very narrow and elongated as compared to the more spread out shape of the non-treated cells.
# Peptides were added to B16.F10.9 melanoma cells in the presence of 200 ng/ml IL-6 and 125 ng/ml sIL-6R. Incubation for three days.
Compound,"Inhibition (%), Experiment 24, WST, GM-CSF [1]","Inhibition (%), Experiment 24, 3H-T, GM-CSF [1]","Inhibition of IL-6 activity (%), Experiment 23, WST, a [2]","Inhibition of IL-6 activity (%), Experiment 23, WST, b [2]","Inhibition of IL-6 activity (%), Experiment 24, WST, IL-6 [2]","Inhibition of IL-6 activity (%), Experiment 24, 3H-T, IL-6 [2]",IC50 in the B16F10.9 cell assay (B16.F10.9 melanoma cells),"specificity of inhibition, IL-6 versus GM-CSF maintained TF1 cells [2]","concentration that fully blocks IL-6 activity (B16.F10.9 melanoma cells; 200 ng/ml IL-6 and 125 ng/ml sIL-6R, three days, FIG. 2)"
Lys(ZCL)-AlaC2-Dab-(D)Glu-(D)AlaN3-(D)Trp-NH2 [Peptide 25],−49%,26%,54%,54%,77%,104%,–,–,–
"CC(C)C[C@H](NC(=O)[C@H](CCCNC(=N)N)NC(=O)[C@@H](N)Cc1ccc(O)cc1)C(=O)N[C@@H](CCCNC(=N)N)C(=O)N[C@@H](Cc1ccccc1)C(=O)N1CCCC(=O)NCCCN([C@@H](C)C(=O)N[C@@H](C)C(=O)N[C@@H](CCC(=O)O)C(N)=O)C(=O)[C@H](Cc2ccc(O)cc2)NC(=O)[C@H](CCCNC(=N)N)NC(=O)[C@H](CC(C)C)NC(=O)[C@@H]1C [PTR 5037, Tyr-Arg-Leu-Arg-Phe-AlaC3-Leu-Arg-Tyr-AlaN3-Ala-Glu] (H-YRLRF[Ala(Nα-(CH2)3CO)]LRY[Ala(Nα-(CH2)3NH)]AE-NH2; lactam 6-10; N-terminus and C-terminus assumed)",–,–,–,–,–,–,around 20 μg/ml,–,–
(D)Bip-(D)LysC2-Lys-Lys(ZCl)-(D)TrpN2-Abu-NH2 [Peptide 88],103%,115%,96%,98%,112%,114%,–,–,–
LysC4-Lys-(D)Arg-Lys-TrpN3-Gln-NH2 [Peptide 33],39%,70%,116%,119%,112%,113%,–,–,–
Lys(ZCL)-GlyC2-Dab-(D)Glu-(D)AlaN3-(D)Trp-NH2 [Peptide 57],48%,102%,122%,114%,121%,114%,–,–,–
(D)Bip-(D)LysC3-4PyrAla-Orn-TrpN2-(p-NO2)Phe-NH2 [Peptide 41],25%,−13%,96%,100%,95%,101%,–,clearly specific to the IL-6 pathway,–
Dab-TrpC2-Dpr-Arg(MTR)-(D)AlaN3-Glu-NH2 [Peptide 83],−5%,12%,2%,4%,31%,51%,–,–,–
Gln-GlyC2-(D)Dab-Arg(MTR)-TrpN2-Trp-NH2 [Peptide 61],4%,−49%,54%,58%,86%,58%,–,–,–
Lys-TrpC2-(D)Arg-Lys-TrpN3-Gln-NH2 [Peptide 34],−27%,3%,97%,108%,96%,106%,–,clearly specific to the IL-6 pathway,–
(D)Bip-GlyC2-Dab-(D)Glu-(D)AlaN3-Abu-NH2 [Peptide 91],45%,75%,98%,106%,123%,113%,–,–,–
"LysC3-Lys-4PyrAla-Orn-TrpN2-(p-NO2)Phe-NH2 ([LysC3]K[4Pal][Orn][TrpN2][Phe(4-NO2)]-NH2; bridge 1-5; reading uncertain; also: backbone cyclization, places not given here, printed as LysC3-Lys-4PyrAla-Orn-TrpN2-(p-NO2)Phe-NH2) [Peptide 40]",−45%,−63%,42%,72%,43%,61%,–,–,–
(D)PheC2-(D)Cit-Dpr-HomArg-(D)GlnN2-(D)Gln-NH2 [Peptide 17],−23%,−30%,50%,44%,67%,80%,–,–,–
(D)Bip-(D)LysC3-Orn-Lys-AsnN2-Arg-NH2 [Peptide 20],−59%,−42%,37%,56%,49%,78%,–,–,–
(D)PheC2-(D)Bip-Arg-Lys-(D)TrpN2-Gln-NH2 [Peptide 81],43%,27%,38%,46%,92%,93%,–,–,–
Trp-Arg-Lys-(D)Arg-Phe-AlaC3-Leu-Arg-Tyr-AlaN3-NH2 [PTR 5049],–,–,–,–,–,–,–,–,not active
